Reference: patent US20240376113A1 (Volastra Therapeutics, Inc., priority 2020, published 2024)
Read-outs that look alike come from different tables or passages of the source.

Experiments:
[1] = target: ENPP1 on MDA-MB-231 cells (Homo sapiens (Human), UniProt P22413); experiment: Inhibition of ENPP1 hydrolysis of AMP p-nitrophenyl ester on MDA-MB-231 cells (Assay 2); format: cell-based
Experimental: Inhibition of ENPP1 Hydrolysis of AMP p-Nitrophenyl Ester on MDA-MB-231 Cells (Assay 2)
ENPP1 is normally expressed on the human metastatic breast cancer cell line MDA-MB-231. Hydrolysis of the p-nitrophenyl ester of AMP (pNP-AMP), an isostere of ATP, is selectively catalyzed by ENPP1 in the supernatant of MDA-MB-231 cell cultures. Inhibition of the hydrolysis of pNP-AMP by MDA-MB-231 at pH 7.4 and 37° C. is a good model of physiologically relevant activity of membrane-bound ENPP1 at disease-relevant expression levels.
MDA-MB-231 cells were harvested using TypLE Express Enzyme digestion and suspended in 100 μL of Leibovitz's L-15 Medium, 20% FBS, seeding the cells in a 96-well assay plate with 4.5×10^4 cells/well. Cells were incubated at 37 C with 1% CO2 for 24 h. In a separate dilution plate, 2× of top dose of compound was prepared in phenol-red free 1640 medium without FBS and then 1:3 serial diluted in the same medium. The cell culture medium of L15 medium was aspirated carefully and cells were washed with PBS once, and 50 μL per well of test compound or DMSO blank are added to the assay plate. Substrate mix (50 μL; 0.5 mM pNP-AMP in phenol-red free 1640 media without FBS) was added for a pNP-AMP final concentration of 0.25 mM. The system was incubated at 37° C. for 3 h.

ENPP-1 ECD = ENPP-1 ECD (Homo sapiens (Human), UniProt P22413); experiment: Inhibition of ENPP1 hydrolysis of 2′,3′-cGAMP (Assay 1)
ENPP-1 ECD, sequence (P22413 98-925): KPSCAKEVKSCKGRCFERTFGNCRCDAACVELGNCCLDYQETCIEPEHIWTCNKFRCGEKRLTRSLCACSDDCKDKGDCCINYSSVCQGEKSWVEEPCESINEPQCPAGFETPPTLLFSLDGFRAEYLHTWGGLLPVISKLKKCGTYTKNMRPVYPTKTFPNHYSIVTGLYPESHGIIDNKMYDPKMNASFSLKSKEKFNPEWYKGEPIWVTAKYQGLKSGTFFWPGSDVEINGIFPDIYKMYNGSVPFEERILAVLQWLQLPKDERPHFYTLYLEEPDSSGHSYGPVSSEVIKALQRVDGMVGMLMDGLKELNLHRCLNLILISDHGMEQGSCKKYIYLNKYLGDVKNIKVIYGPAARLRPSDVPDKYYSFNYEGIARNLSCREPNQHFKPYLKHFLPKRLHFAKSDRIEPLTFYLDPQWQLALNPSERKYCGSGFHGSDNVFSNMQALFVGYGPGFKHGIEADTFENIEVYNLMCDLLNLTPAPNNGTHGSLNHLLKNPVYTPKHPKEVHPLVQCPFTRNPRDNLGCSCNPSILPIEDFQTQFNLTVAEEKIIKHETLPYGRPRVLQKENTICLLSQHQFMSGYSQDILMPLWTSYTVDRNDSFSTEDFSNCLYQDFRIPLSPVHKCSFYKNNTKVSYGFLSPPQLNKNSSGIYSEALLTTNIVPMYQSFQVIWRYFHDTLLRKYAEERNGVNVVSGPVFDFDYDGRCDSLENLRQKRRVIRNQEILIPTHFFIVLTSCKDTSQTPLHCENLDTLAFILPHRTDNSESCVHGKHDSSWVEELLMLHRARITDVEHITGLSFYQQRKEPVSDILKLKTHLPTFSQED
Experimental: Test compounds were plated in a 3× dilution scheme in a 384 well plate.

[2] = pNP-AMP 0.25 mM, MDA-MB-231 cells, 37° C. 3 h, KI,app from IC50 via Cheng/Prusoff, read-out: Assay 2 KI, app
[3] = pNP-AMP 0.25 mM, MDA-MB-231 cells, 37° C. 3 h, KI,app from IC50 via Cheng/Prusoff, read-out: Assay 2 KI,app values (class)
[4] = Assay 1 KI values (class), 2,3-cGAMP 24 μM, AMP-Glo luminescence, KI from IC50 via Cheng/Prusoff
[5] = read-out: Assay 1 KI, 2,3-cGAMP 24 μM, AMP-Glo luminescence, KI from IC50 via Cheng/Prusoff
[6] = read-out: Assay 1 KI values (class), 2,3-cGAMP 24 μM, AMP-Glo luminescence, KI from IC50 via Cheng/Prusoff

ENPP1 on MDA-MB-231 cells, sequence (P22413 whole entry): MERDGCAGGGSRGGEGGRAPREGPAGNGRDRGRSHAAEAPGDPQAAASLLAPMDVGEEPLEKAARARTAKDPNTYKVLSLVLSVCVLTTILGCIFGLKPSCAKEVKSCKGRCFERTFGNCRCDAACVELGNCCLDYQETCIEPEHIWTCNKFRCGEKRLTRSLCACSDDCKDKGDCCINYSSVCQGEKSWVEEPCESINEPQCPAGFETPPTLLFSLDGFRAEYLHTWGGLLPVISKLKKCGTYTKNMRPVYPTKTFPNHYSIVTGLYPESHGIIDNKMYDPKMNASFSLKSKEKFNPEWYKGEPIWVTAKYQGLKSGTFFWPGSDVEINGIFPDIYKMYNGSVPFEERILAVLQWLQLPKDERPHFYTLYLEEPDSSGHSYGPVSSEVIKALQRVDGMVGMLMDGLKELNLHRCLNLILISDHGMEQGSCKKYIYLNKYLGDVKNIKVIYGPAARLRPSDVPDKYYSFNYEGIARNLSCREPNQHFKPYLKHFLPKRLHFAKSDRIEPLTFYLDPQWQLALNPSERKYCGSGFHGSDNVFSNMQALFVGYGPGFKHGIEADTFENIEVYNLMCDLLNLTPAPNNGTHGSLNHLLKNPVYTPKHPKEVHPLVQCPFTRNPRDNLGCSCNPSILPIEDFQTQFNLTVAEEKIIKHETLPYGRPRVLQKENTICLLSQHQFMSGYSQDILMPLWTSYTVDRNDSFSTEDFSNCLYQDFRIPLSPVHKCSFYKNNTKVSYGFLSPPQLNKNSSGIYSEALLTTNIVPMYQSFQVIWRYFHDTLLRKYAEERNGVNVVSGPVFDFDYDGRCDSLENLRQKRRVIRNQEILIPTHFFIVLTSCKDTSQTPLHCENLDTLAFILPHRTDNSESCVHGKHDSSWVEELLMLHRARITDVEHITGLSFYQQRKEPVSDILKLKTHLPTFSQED

Compound | Ki [1, 2] | Ki [1, 3] | Ki (ENPP-1 ECD; [4]) | Ki (ENPP-1 ECD; [5]) | Ki (ENPP-1 ECD; [6]) | Ki [1] | Ki (ENPP-1 ECD)
CN(C)c1c(Cc2ccc(S(C)(=N)=O)cc2)c(C2CC2)nc2ncnn12 (stereo not drawn) [Compound 53, (4-{[5-cyclopropyl-7-(dimethylamino)-[1,2,4]triazolo[1,5-a]pyrimidin-6-yl]methyl}phenyl)(imino)methyl-λ^6-sulfanone] | 1.11 nM | < 10 nM | < 3 nM |  |  |  | 
Cc1nc2ncnn2c(N(C)C)c1Cc1ccc(S(C)(=N)=O)cc1 (stereo not drawn) [Compound 1, (4-((7-(dimethylamino)-5-methyl-[1,2,4]triazolo[1,5-a]pyrimidin-6-yl)methyl)phenyl)(imino)(methyl)-λ^6-sulfanone] | 7.47 nM | < 10 nM | < 3 nM | 0.109 nM |  |  | 
Cc1cc2ncnn2c(N2CCCC2)c1Cc1ccc(S(C)(=N)=O)cc1 (stereo not drawn) [Compound 75, imino(methyl)(4-{[7-methyl-5-(pyrrolidin-1-yl)-[1,2,4]triazolo[1,5-a]pyridin-6-yl]methyl}phenyl)-λ^6-sulfanone] | 36.7 nM | > 10 nM | < 3 nM |  |  |  | 
CCN(C)c1c(Cc2ccc(S(C)(=N)=O)cc2)c(C)nc2ncnn12 (stereo not drawn) [Compound 12, (4-((7-(ethyl(methyl)amino)-5-methyl-[1,2,4]triazolo[1,5-a]pyrimidin-6-yl)methyl)phenyl)(imino)(methyl)-λ^6-sulfanone] | 48.9 nM | > 10 nM | < 3 nM | 0.479 nM |  |  | 
Cc1nc2ncnn2c(N(C)C)c1Cc1cccc(N)c1 |  |  |  |  |  | 1400 nM | 110 nM
[2H]C([2H])([2H])N(c1c(Cc2ccc(S(C)(=N)=O)cc2)c(C)nc2ncnn12)C([2H])([2H])[2H] (stereo not drawn) [Compound 49, [4-[{7-[di(^2H3)methylamino]-5-methyl-[1,2,4]triazolo[1,5-a]pyrimidin-6-yl}methyl)phenyl](imino)methyl-λ^6-sulfanone] | 4.7 nM | < 10 nM | < 3 nM | 0.0621 nM |  |  | 
Cc1nc2ncnn2c(N(C)C)c1Cc1ccc([S@@](C)(=N)=O)cc1 (single isomer, unassigned) [Compound 49a] | 1.59 nM | < 10 nM |  | 0.0236 nM | < 3 nM |  | 
Cc1cc2ncnn2c(N2CCCCC2)c1Cc1ccc(S(C)(=N)=O)cc1 (stereo not drawn) [Compound 76, imino(methyl)(4-{[7-methyl-5-(piperidin-1-yl)-[1,2,4]triazolo[1,5-a]pyridin-6-yl]methyl}phenyl)-λ^6-sulfanone] | 38.6 nM | > 10 nM | < 3 nM |  |  |  | 
Cc1nc2ncnn2c(N(C)C)c1Cc1ccc([S@@](=N)(=O)CCC(=O)O)cc1 [Compound 72a] | 0.505 nM |  |  | 0.00881 nM |  |  | 
Cc1c(Cc2ccc([S@@](C)(=N)=O)cc2)c(N(C)C)n2ccnc2c1C#N [Compound 80a] | 0.589 nM | < 10 nM |  | 0.016 nM | < 3 nM |  | 
Cc1c(Cc2ccc(S(C)(=N)=O)cc2)c(N(C)C)n2ncnc2c1C#N (stereo not drawn) [Compound 85, 5-(dimethylamino)-6-({4-[imino(methyl)oxo-λ^6-sulfanyl]phenyl}methyl)-7-methyl-[1,2,4]triazolo[1,5-a]pyridine-8-carbonitrile] | 0.724 nM |  |  | 0.0287 nM |  |  | 

Further compounds by falling Ki [1, 2], results first:

Ki [1, 2] | Ki [1, 3] | Ki (ENPP-1 ECD; [4]) | Ki (ENPP-1 ECD; [5]) | Ki (ENPP-1 ECD; [6]) | Compound | Ki [1] | Ki (ENPP-1 ECD)
13.5 nM | > 10 nM | < 3 nM | 0.817 nM |  | Cc1nc2ncnn2c(N2CCCC2)c1Cc1ccc(B(O)O)cc1 [Compound 81, (4-{[5-methyl-7-(pyrrolidin-1-yl)-[1,2,4]triazolo[1,5-a]pyrimidin-6-yl]methyl}phenyl)boronic acid] |  | 
11.9 nM | > 10 nM |  | 0.0627 nM | < 3 nM | Cc1nc2ncnn2c(N2CCCCC2)c1Cc1ccc([S@](C)(=N)=O)cc1 [Compound 16a] |  | 
7.7 nM | < 10 nM | < 3 nM |  |  | Cc1nc2ncnn2c(N(C)C)c1Cc1ccc(S(=N)(=O)CCN)cc1 (stereo not drawn) [Compound 73, (2-aminoethyl)(4-{[7-(dimethylamino)-5-methyl-[1,2,4]triazolo[1,5-a]pyrimidin-6-yl]methyl}phenyl)imino-λ^6-sulfanone] |  | 
1.06 nM | < 10 nM | < 3 nM | < 0.027 nM |  | Cc1cc2ncnn2c(N(C)C)c1Cc1ccc(S(C)(=N)=O)cc1 (stereo not drawn) [Compound 28, (4-{[5-(dimethylamino)-7-methyl-[1,2,4]triazolo[1,5-a]pyridin-6-yl]methyl}phenyl)(imino)methyl-λ^6-sulfanone] |  | 
0.447 nM |  |  | 0.0184 nM |  | Cc1cc2ncnn2c(N(C)C)c1Cc1ccc(S(=N)(=O)CCC(=O)O)cc1 (stereo not drawn) [Compound 87, 3-[(4-{[5-(dimethylamino)-7-methyl-[1,2,4]triazolo[1,5-a]pyridin-6-yl]methyl}phenyl)(imino)oxo-λ^6-sulfanyl]propanoic acid] |  | 
0.222 nM |  |  | 0.00586 nM |  | COc1nc2ncnn2c(N(C)C)c1Cc1ccc([S@@](C)(=N)=O)cc1 [Compound 88a] |  | 
